For 43 compounds, chromatographic logP and inhibition of growth results are on record in patent US11219214B2, “Benzosultams and analogues and their use as fungicides” (Bayer CropScience Aktiengesellschaft, priority 2016, dated 2022).

Like-named read-outs stand apart in the source and are kept apart here.

For series [1] the following is noted: 0.1% aqueous formic acid and acetonitrile, gradient 10% to 95% acetonitrile.
Procedure: In table 1a, the log P values were determined in accordance with EEC Directive 79/831 Annex V.A8 by HPLC (High Performance Liquid Chromatography) on a reversed-phase column (C 18), using the method described below:
Method C: temperature: 55° C.; mobile phases: 0.1% aqueous formic acid and acetonitrile; linear gradient from 10% acetonitrile to 95% acetonitrile.
If more than one Log P value is available within the same method, all the values are given and separated by “;”.
A further series has as its system Leptnosphaeria nodorum. Nature of the series: Example C: Leptnosphaeria nodorum in vitro cell test. Type of series: cell-based. The conditions noted are these: 144 h, liquid culture, 6 days incubation, inhibition of fungal growth, read-out: Efficacy; for inhibition of growth at 20 ppm: 20 ppm of active ingredient. As for the experimental part: Example C: Leptnosphaeria nodorum In Vitro Cell Test • Solvent: dimethyl sulfoxide (DMSO) • Culture medium: 14.6 g anhydrous D-glucose (VWR), 7.1 g Mycological Peptone (Oxoid), 1.4 g granulated Yeast Extract (Merck), QSP 1 liter • Inoculum: spore suspension Active ingredients were solubilized in DMSO and the solution used to prepare the required range of concentrations. […] A spore suspension of L. nodorum was prepared and diluted to the desired spore density. Active ingredients were evaluated for their ability to inhibit spore germination and mycelium growth in liquid culture assay. The compounds were added in the desired concentration to the culture medium with spores. After 6 days incubation, fungi-toxicity of compounds was determined by spectrometric measurement of mycelium growth. Inhibition of fungal growth was determined by comparing the absorbance values in wells containing the active ingredients with the absorbance in control wells without fungicides.

The test system of another series is Pyricularia oryzae. Nature of the series: microbe, parasite or virus in culture. Type of series: cell-based. The conditions noted are these: 120 h, read-out: Efficacy, 20 ppm of active ingredient, liquid culture, 5 days incubation, inhibition of fungal growth.
The mark [2] stands for this setting: Method C: HPLC reversed-phase C 18, 55° C.

As to `Fc1cc(F)c2cc(I)cnc2c1` [II.12A], the chromatographic logP (as a rule, lipophilicity estimated from chromatographic retention) in series [1] (Method A: 40° C.) came to 3.31.

Regarding `COC1N(c2cnc3c(F)cccc3c2)c2ccccc2C1(C)C` (centres unmarked) [CMP1, 8-fluoro-3-(2-methoxy-3,3-dimethyl-2,3-dihydro-1H-indol-1-yl)quinoline, reference compound], in the series with Leptnosphaeria nodorum, the inhibition of growth at 4 ppm turned out to be 0% and the inhibition of growth at 20 ppm turned out to be 5%. Moreover, the inhibition of growth at 20 ppm in the series on Pyricularia oryzae came out at 7%.

For the compound `O=S1(=O)N(Cc2ccccc2)c2ccccc2CC12CC2` [IV.01A], the chromatographic logP in series [1] (Method C: 55° C.) was determined as 3.19.

Consider `CC1C(C)(C)c2ccccc2N(c2cnc3ccccc3c2)S1(=O)=O` (centres unmarked) [I.173, 3,4,4-trimethyl-1-(quinolin-3-yl)-3,4-dihydro-1H-2,1-benzothiazine 2,2-dioxide], for which the inhibition of growth at 20 ppm with Leptnosphaeria nodorum and in the series on Pyricularia oryzae was 90 to 100% each time. The compound further displayed a chromatographic logP in series [1] (Method C: 55° C.) of 3.53.

For `CC1(C)C(=O)c2ccccc2N(c2cnc3ccccc3c2)S1(=O)=O` [I.156, 3,3-dimethyl-1-(quinolin-3-yl)-1H-2,1-benzothiazin-4(3H)-one 2,2-dioxide], the inhibition of growth at 20 ppm is 70 to 79% with Leptnosphaeria nodorum and 90 to 100% with Pyricularia oryzae. Further, the chromatographic logP in series [1] (Method C: 55° C.) is 2.93.

As for `N#Cc1ccc2ncc(I)cc2c1` [II.04A], the chromatographic logP in series [1] (Method A: 40° C.) is 2.5.

As for `Fc1c(Cl)ccc2cc(I)cnc12` [II.02A], the chromatographic logP in series [1] (Method A: 40° C.) came to 3.37.

`O=S1(=O)CCCc2ccccc2N1` [IIIc.02, 1,3,4,5-tetrahydro-2,1-benzothiazepine 2,2-dioxide] yielded a chromatographic logP in series [1] (Method C: 55° C.) of 1.2.

Regarding `O=C1CS(=O)(=O)N(c2cnc3ccccc3c2)c2ccccc21` [I.159, 1-(quinolin-3-yl)-1H-2,1-benzothiazin-4(3H)-one 2,2-dioxide], the chromatographic logP in series [1] (Method C: 55° C.) was 2.28.

Consider `Fc1cc2cc(I)cnc2cc1F` [II.08A], for which the chromatographic logP in series [1] (Method A: 40° C.) is 3.15.

As to `O=S1(=O)Cc2ccccc2N1c1cnc2c(F)cccc2c1` [I.018, 3-(2,2-dioxido-2,1-benzothiazol-1(3H)-yl)-8-fluoroquinoline], the inhibition of growth at 20 ppm in the series on Leptnosphaeria nodorum fell in the range of 90 to 100%. The chromatographic logP in series [1] (Method A: 40° C.) was 2.52.

In series [1] (Method A: 40° C.), `O=S1(=O)Cc2c(F)cccc2N1` [III.01A] registered a chromatographic logP of 1.34.

Turning to `CC1(C)c2ccccc2N(c2cnc3c(F)cccc3c2)S1(=O)=O` [I.015, 3-(3,3-dimethyl-2,2-dioxido-2,1-benzothiazol-1(3H)-yl)-8-fluoroquinoline], the inhibition of growth at 4 ppm in the series on Leptnosphaeria nodorum was not below 80%. The inhibition of growth at 20 ppm with Leptnosphaeria nodorum and in the series on Pyricularia oryzae was 90 to 100% in each case. This compound also showed a chromatographic logP in series [1] (Method A: 40° C.) of 3.12.

As to `C=C1c2ccccc2N(c2cnc3c(F)c(F)ccc3c2)S(=O)(=O)C1(C)C` [I.219, 1-(7,8-difluoroquinolin-3-yl)-3,3-dimethyl-4-methylene-3,4-dihydro-1H-2,1-benzothiazine 2,2-dioxide], the inhibition of growth at 20 ppm in the series on Leptnosphaeria nodorum and in the series with Pyricularia oryzae was 90 to 100% each time. Besides, the chromatographic logP in series [1] (Method C: 55° C.) and in series [1] (setting [2]) was 3.34 in each case.

Compound `O=S1(=O)Cc2c(cccc2OC(F)(F)F)N1` [III.04A] had a chromatographic logP in series [1] (Method A: 40° C.) of 2.11.

On to `CC1(O)c2ccccc2N(c2cnc3ccccc3c2)S(=O)(=O)C1(C)C` (centres unmarked) [I.213, 3,3,4-trimethyl-1-(quinolin-3-yl)-3,4-dihydro-1H-2,1-benzothiazin-4-ol 2,2-dioxide], for which the inhibition of growth at 20 ppm in the series with Leptnosphaeria nodorum and with Pyricularia oryzae was 80 to 89% in each case. Further, the chromatographic logP in series [1] (Method C: 55° C.) and in series [1] (setting [2]) was 2.46 each time.

On to `O=S1(=O)Nc2ccccc2CC12CC2` [III.07A], for which the chromatographic logP in series [1] (Method C: 55° C.) stood at 1.49.

In series [1] (Method C: 55° C.), `CC(C)(CS(=O)(=O)Nc1cnc2ccccc2c1)c1ccccc1Br` [VIIIa.18, 2-(2-bromophenyl)-2-methyl-N-(quinolin-3-yl)propane-1-sulfonamide] displayed a chromatographic logP of 2.98.

As to `O=S1(=O)CC(=NOCc2ccccc2)c2ccccc2N1c1cnc2ccccc2c1` [I.241, N-(benzyloxy)-1-(quinolin-3-yl)-1H-2,1-benzothiazin-4(3H)-imine 2,2-dioxide], the chromatographic logP in series [1] (Method C: 55° C.) and in series [1] (setting [2]) was 3.94 each time. Moreover, in the series on Pyricularia oryzae, the inhibition of growth at 20 ppm was 70 to 79%.

`CC1(C)C(F)(F)c2ccccc2N(c2cnc3ccccc3c2)S1(=O)=O` [I.163, 4,4-difluoro-3,3-dimethyl-1-(quinolin-3-yl)-3,4-dihydro-1H-2,1-benzothiazine 2,2-dioxide]: the inhibition of growth at 20 ppm with Leptnosphaeria nodorum lay in the range of 90 to 100%; in the series on Pyricularia oryzae it was 80 to 89%. Further, the chromatographic logP in series [1] (Method C: 55° C.) worked out at 3.25.

Regarding `CC1(OCc2ccccc2)c2ccccc2N(c2cnc3ccccc3c2)S(=O)(=O)C1(C)C` (centres unmarked) [I.250, 4-(benzyloxy)-3,3,4-trimethyl-1-(quinolin-3-yl)-3,4-dihydro-1H-2,1-benzothiazine 2,2-dioxide], the inhibition of growth at 20 ppm in the series with Leptnosphaeria nodorum is 90 to 100%; with Pyricularia oryzae it was 80 to 89%. Also, in series [1] (Method C: 55° C.), the chromatographic logP stood at 4.04.

Consider `CC1(C)CS(=O)(=O)N(c2cnc3ccccc3c2)c2ccccc21` [I.166, 4,4-dimethyl-1-(quinolin-3-yl)-3,4-dihydro-1H-2,1-benzothiazine 2,2-dioxide], for which the chromatographic logP in series [1] (Method C: 55° C.) turned out to be 2.88. Further, in the series with Pyricularia oryzae, the inhibition of growth at 20 ppm is 90 to 100%.

`O=S1(=O)C=CCc2ccccc2N1Cc1ccccc1` [V.01, 1-benzyl-1,5-dihydro-2,1-benzothiazepine 2,2-dioxide] returned a chromatographic logP in series [1] (Method C: 55° C.) of 6.01.

The compound `Cc1ccc(F)c2ncc(I)cc12` [II.10A] had a chromatographic logP in series [1] (Method A: 40° C.) of 3.06.

As for `COC(=O)c1ccccc1Nc1cnc2ccccc2c1` [methyl 2-(quinolin-3-ylamino)benzoate], the chromatographic logP in series [1] (Method C: 55° C.) worked out at 2.96.

As to `N#Cc1cccc2c1CS(=O)(=O)N2` [III.05A], the chromatographic logP in series [1] (Method A: 40° C.) worked out at 1.08.

On to `Fc1cc(Cl)cc2cc(I)cnc12` [II.09A], for which the chromatographic logP in series [1] (Method A: 40° C.) was determined as 3.15.

Turning to `CC1(C)Cc2ccccc2NS1(=O)=O` [III.06A], in series [1] (Method C: 55° C.), the chromatographic logP came out at 1.6.

As to `CC1Cc2ccccc2NS1(=O)=O` (centres unmarked) [3-methyl-3,4-dihydro-1H-2,1-benzothiazine 2,2-dioxide], the chromatographic logP in series [1] (Method C: 55° C.) turned out to be 1.33.

In series [1] (Method A: 40° C.), `Fc1ccc(F)c2ncc(I)cc12` [II.06A] displayed a chromatographic logP of 2.94.

Take `N#Cc1cccc2cc(I)cnc12` [II.11A]: the chromatographic logP in series [1] (Method A: 40° C.) was found to be 2.54.

Turning to `Fc1cc(F)c2ncc(I)cc2c1` [II.05A], the chromatographic logP in series [1] (Method A: 40° C.) was found to be 2.88.

Take `CC1(C)c2ccccc2N(c2cnc3ccccc3c2)S(=O)(=O)C1(C)C` [I.172, 3,3,4,4-tetramethyl-1-(quinolin-3-yl)-3,4-dihydro-1H-2,1-benzothiazine 2,2-dioxide]: the inhibition of growth at 20 ppm with Leptnosphaeria nodorum and with Pyricularia oryzae was 90 to 100% throughout. For the same compound, in series [1] (Method C: 55° C.), the chromatographic logP was determined as 3.85.

Regarding `Cc1ccc2cc(I)cnc2c1F` [II.03A], the chromatographic logP in series [1] (Method A: 40° C.) is 3.11.

`O=S1(=O)Cc2cc(C(F)(F)F)ccc2N1` [III.03A] yielded a chromatographic logP in series [1] (Method A: 40° C.) of 1.95.

In the case of `O=C1c2ccccc2N(c2cnc3ccccc3c2)S(=O)(=O)C1(Cl)Cl` [I.239, 3,3-dichloro-1-(quinolin-3-yl)-1H-2,1-benzothiazin-4(3H)-one 2,2-dioxide], the chromatographic logP in series [1] (Method C: 55° C.) and in series [1] (setting [2]) was 3.49 each time.

As for `Clc1ccc2cc(I)cnc2c1Cl` [II.07A], in series [1] (Method A: 40° C.), the chromatographic logP was 3.83.

As for `FC(F)(F)c1cccc2cc(I)cnc12` [II.01A], the chromatographic logP in series [1] (Method A: 40° C.) came to 3.11.

For `O=S1(=O)Cc2c(cccc2C(F)(F)F)N1` [III.02A], the chromatographic logP in series [1] (Method A: 40° C.) was found to be 1.99.

In turn, `CC1Cc2ccccc2N(c2cnc3ccccc3c2)S1(=O)=O` (centres unmarked) [I.158, 3-methyl-1-(quinolin-3-yl)-3,4-dihydro-1H-2,1-benzothiazine 2,2-dioxide] had a chromatographic logP in series [1] (Method C: 55° C.) of 2.58.

In series [1] (Method C: 55° C.), `COC(=O)c1ccccc1N(c1cnc2ccccc2c1)S(C)(=O)=O` [Xa.02, methyl 2-[(methylsulfonyl)(quinolin-3-yl)amino]benzoate] returned a chromatographic logP of 2.17.

For `CC1(F)c2ccccc2N(c2cnc3c(F)c(F)ccc3c2)S(=O)(=O)C1(C)C` (centres unmarked) [I.225, 1-(7,8-difluoroquinolin-3-yl)-4-fluoro-3,3,4-trimethyl-3,4-dihydro-1H-2,1-benzothiazine 2,2-dioxide], the inhibition of growth at 20 ppm in the series with Leptnosphaeria nodorum and with Pyricularia oryzae was 90 to 100% in each case. In addition, the chromatographic logP in series [1] (Method C: 55° C.) and in series [1] (setting [2]) was 3.6 each time.

Turning to `CC1Cc2ccccc2N(c2cc3ccccc3[n+]([O-])c2)S1(=O)=O` (centres unmarked) [I.162, 3-methyl-1-(1-oxidoquinolin-3-yl)-3,4-dihydro-1H-2,1-benzothiazine 2,2-dioxide], the inhibition of growth at 20 ppm in the series on Leptnosphaeria nodorum and in the series with Pyricularia oryzae was 90 to 100% in each case. Besides, in series [1] (Method C: 55° C.), the chromatographic logP worked out at 1.81.
